# Structures can show the parent of a compound that is named as a salt. Where two headings read alike, the source gives them in different places.
# Target: T1, His6-AspH315–758 (human aspartate/asparagine-β-hydroxylase, AspH) (Homo sapiens, UniProt Q12797)
# T1 construct: N-Terminally His6-tagged human AspH315–758 (His6-AspH315–758) was produced in E. coli BL21 (DE3) cells; made in house; host or cells: E. coli BL21 (DE3), pET-28a(+) vector
# T1 sequence (Q12797 315-758): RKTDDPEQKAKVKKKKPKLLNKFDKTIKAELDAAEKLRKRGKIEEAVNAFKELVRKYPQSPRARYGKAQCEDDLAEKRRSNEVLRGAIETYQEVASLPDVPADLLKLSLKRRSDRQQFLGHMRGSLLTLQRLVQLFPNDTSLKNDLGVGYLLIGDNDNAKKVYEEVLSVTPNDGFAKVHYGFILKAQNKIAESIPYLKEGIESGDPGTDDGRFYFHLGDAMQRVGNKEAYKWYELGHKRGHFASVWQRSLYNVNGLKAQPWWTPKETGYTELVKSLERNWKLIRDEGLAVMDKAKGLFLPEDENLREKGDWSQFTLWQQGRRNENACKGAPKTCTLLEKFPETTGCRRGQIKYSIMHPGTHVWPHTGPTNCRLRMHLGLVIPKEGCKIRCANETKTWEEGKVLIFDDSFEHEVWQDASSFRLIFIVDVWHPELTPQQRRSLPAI
# Experiment: SPE-MS AspH inhibition assay (LOPAC screen at fixed 20 μM and IC50 dose-response), hydroxylation of cyclic peptide hFX-CP101–119
# Format: biochemical
# [1] = LOPAC Plate 4, compound at 20 uM, substrate conversion
# [2] = LOPAC Plate 4, compound at 20 uM, read-out: % inhibition
# [3] = LOPAC compound at fixed 20 uM, plate 1, normalised to DMSO and 2,4-PDCA controls
# [4] = LOPAC compound at fixed 20 uM, substrate conversion, plate 1
compound,measurement,setting,value
CC[C@]1(O)C[C@@H]2CN(CCc3c([nH]c4ccccc34)[C@@](C(=O)OC)(c3cc4c(cc3OC)N(C)[C@H]3[C@@](O)(C(=O)OC)[C@H](OC(C)=O)[C@]5(CC)C=CCN6CC[C@]43[C@@H]65)C2)C1.O=S(=O)(O)O [Vinblastine sulfate salt],% conversion,,54.00%
same,% inhibition,20 µM,-51.36%
CC[C@]1(O)C[C@H]2CN(CCc3c([nH]c4ccccc34)[C@@](C(=O)OC)(c3cc4c(cc3OC)N(C=O)[C@H]3[C@@](O)(C(=O)OC)[C@H](OC(C)=O)[C@]5(CC)C=CCN6CC[C@]43[C@@H]65)C2)C1 [Vincristine sulfate],% conversion,[1],40.04%
same,inhibition at 20 µM,[2],-10.5%
CCOC(=O)C1=C[C@]2(CC)CCCN3CCc4c(n1c1ccccc41)[C@@H]32 [Vinpocetine],% conversion,[1],29.87%
C[C@@H](c1ncncc1F)[C@](O)(Cn1cncn1)c1ccc(F)cc1F [Voriconazole],Plate 1 (% inhibition),[3],-9.17%
same,Plate 1 (% conversion),[4],38.95%
same,Plate 5 (% inhibition),"plate 5 (Pfitzer), test compounds at fixed 20 μM",-1.65%
same,Plate 5 (% conversion),"plate 5 (Pfitzer), test compounds at fixed 20 μM, mean conversion DMSO 32.88",36.88%
COc1ccccc1N1CCN(CCN(C(=O)C2CCCCC2)c2ccccn2)CC1.O=C(O)/C=C\C(=O)O [WAY-100635 maleate],% conversion,,42.39%
same,% inhibition,20 µM,-17.34%
"C#C[C@]1(O)CC[C@H]2[C@@H]3CCC4=Cc5nc6nc7ccccc7n6cc5C[C@]4(C)[C@H]3CC[C@@]21C [WIN 62,577]",% conversion,,37.03%
same,% inhibition,20 µM,-1.63%
COC[C@H]1OC(=O)c2coc3c2[C@@]1(C)C1=C(C3=O)[C@@H]2CCC(=O)[C@@]2(C)C[C@H]1OC(C)=O [Wortmannin from Penicillium funiculosum],% conversion,,29.28%
COc1cc(/C=C(\C#N)C(=O)Nc2nnc(C(F)(F)F)s2)ccc1OCc1ccc(C(F)(F)F)cc1C(F)(F)F [XCT790],% conversion,[1],22.43%
Cc1cccc(C)c1N=C1NCCCS1 [Xylazine hydrochloride],% conversion,,33.11%
Cc1cc(C(C)(C)C)cc(C)c1CC1=NCCN1 [Xylometazoline hydrochloride],% conversion,,31.88%
CCc1ccc2c(-c3cccc(Cl)c3)nc(=O)n(CC)c2n1 [YM 976],Plate 1 (% inhibition),[3],-17.07%
same,Plate 1 (% conversion),[4],41.61%
COc1ccc(CCN(C)CCc2ccc(OC)c(OC)c2)cc1OC.Cl [YS-035 hydrochloride],% inhibition,"LOPAC Plate 4, compound at 20 uM",-13.70%
same,% conversion,[1],41.15%
COC(=O)[C@@H]1[C@H]2C[C@H]3c4[nH]c5ccccc5c4CCN3C[C@@H]2CC[C@@H]1O [Yohimbine hydrochloride],inhibition at 20 µM,,-4.13%
O=C(N[C@@H](Cc1ccccc1)C(=O)CCl)OCc1ccccc1 [Z-L-Phe chloromethyl ketone],Plate 1 (% conversion),,35.86%
same,Plate 1 (% inhibition),,0.032%
CC(C)N(CCC(=O)c1ccc2ccccc2c1)Cc1ccccc1.Cl [ZM 39923 hydrochloride],Plate 3 (% conversion),"LOPAC compound at 20uM, plate 3, conversion of substrate peptide",15.79%
CCCOc1ccccc1-c1nc2nn[nH]c2c(=O)[nH]1 [Zaprinast],% conversion,[1],35.45%
same,inhibition at 20 µM,[2],2.99%
CN(C)C/C=C(/c1ccc(Br)cc1)c1cccnc1 [Zimelidine dihydrochloride],% conversion,[1],37.91%
O=C1Cc2cc(CCN3CCN(c4nsc5ccccc45)CC3)c(Cl)cc2N1 [Ziprasidone hydrochloride monohydrate],% conversion,[1],26.15%
C[C@H](CSC(=O)c1ccccc1)C(=O)N1C[C@@H](Sc2ccccc2)C[C@H]1C(=O)[O-].C[C@H](CSC(=O)c1ccccc1)C(=O)N1C[C@@H](Sc2ccccc2)C[C@H]1C(=O)[O-].[Ca+2] [Zofenopril calcium],% conversion,,32.50%
same,% inhibition,20 µM,11.63%
O=P(O)(O)C(O)(Cn1ccnc1)P(=O)(O)O [Zoledronic acid monohydrate],Plate 3 (% conversion),,37.14%

# Reference: publication PMC7251097, “Aspartate/asparagine-β-hydroxylase: a high-throughput mass spectrometric assay for discovery of small molecule inhibitors” (Scientific Reports, 2020)
